Results on nine compounds are retold here after EP2845588A1, “PIN1 inhibitors for use in the prevention and/or treatment of theileriosis, and related applications” (Centre National de la Recherche Scientifique (CNRS), priority 2013, dated 2015).

Like-named read-outs stand apart in the source and are kept apart here.

Experiment [1] concerns the target T1, PIN1 (Homo sapiens, UniProt Q13526). To be noted: cited from earlier work; for IC50: read-out: PIN1 inhibition IC50.
For experiment [2], the system named is non-parasitized BL3 cells. Nature of the experiment: Cell proliferation, live cell count after trypan blue exclusion, BL3. In kind it is cell-based, bovine. To be noted: BL3 / uninfected cells. The method, then:
All infected bovine cell lines used in this study were previously described: TBL3 cells were derived from in vitro infection of the spontaneous bovine-B lymphosarcoma cell line, BL3, with Hissar stock of T.annulata. The TpMD409 lymphocyte cell line are infected with T. parva. The culture conditions of these cell lines were previously described by Moreau et al., 1999. Cells were cultured in RPMI 1640 (Gibco-BRL, Paisley, UK), supplemented with 10% heat-inactivated Fetal calf serum, 4mM L-Glutamine, 25mM HEPES, 10µM β-mercaptoethanol and 100µg/ml penicillin/streptomycin in a humidified 5%CO2 atmosphere at 37°C. HepG2, NIH/3T3 and MEF cells lines were cultured in DMEM (Gibco-BRL, Paisley, UK), supplemented with 10% heat-inactivated Fetal calf serum, 4mM L-Glutamine, 25 mM HEPES, 10µM β-mercaptoethanol and 100µg/ml penicillin/streptomycin in a humidified 5% CO2 atmosphere at 37°C. Cell numbers, as judged by Trypan Blue exclusion test, were determined by counting cells using a Countess automated cell counter (Invitrogen, CA, USA). The anti-parasite drug Buparvaquone (BW720c) was used at 200ng/ml for 72 hours. BW720c has no effect on growth of uninfected cells.
Cells were treated with either Juglone at 5 µM resuspended in Ethanol (Sigma, St Louis, MO, Ref.: H47003), or PiB at 1 µM resuspended in DMSO (Sigma, Ref.: B7688), or Dimethyloxalylglycine DMOG at 0.5 mM resuspended in DMSO (Tebu-bio, MO, USA).

In experiment [3] the test system is FBW7 and c-Jun mRNA in TBL3 cells. As to the kind of experiment: RT-qPCR of FBW7 and c-Jun mRNA in TBL3 cells. Format: cell-based, bovine. The method, then: Total cellular RNAs were extracted using an RNeasy Plus Mini Kit (Qiagen, Hilden, Germany) and parasite RNAs were extracted using the classical Trizol Protocol. cDNA synthesis was performed with the Reverse Transcriptase Superscript III (Invitrogen, CA, USA).
Quantitative PCR amplification was performed in the ABI 7500 machine (Applied Biosystems, CA, USA) using the Sybr Green reagent (Applied Biosystems, CA, USA) using the primers listed in Table 5 below. The detection of a single product was verified by dissociation curve analysis. Relative quantities of mRNA were analyzed using the delta Ct method. The βactin qPCR was used for normalization. Table 5: qPCR primers

Experiment [4] has as its target T1, PIN1. To be noted: cited from earlier work.

T1 sequence (Q13526 whole entry): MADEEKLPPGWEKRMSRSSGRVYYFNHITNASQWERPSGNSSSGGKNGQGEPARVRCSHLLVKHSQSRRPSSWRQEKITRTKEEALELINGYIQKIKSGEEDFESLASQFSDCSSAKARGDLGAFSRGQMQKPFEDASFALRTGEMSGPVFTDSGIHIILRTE

Turning to `S=C(SC(=S)N1CCCCC1)N1CCCCC1` [1-Piperidinecarbodithioic acid, anhydrosulfide], the IC50 in experiment [1] is 4.1 µM. Regarding `CN1C(=O)c2ccc3c4c(ccc(c24)C1=O)C(=O)N(C)C3=O` [2,7-Dimethylbenzo[Imn][3,8]phenanthroline-1,3,6,8(2H,7H)-tetrone], the IC50 in experiment [1] was 2 µM.

As to `O=C1Nc2ccc([N+](=O)[O-])cc2/C1=C1/Nc2ccccc2/C1=N/O` [(3Z)-3-[(3Z)-3-hydroxyiminoindolin-2-ylidene]-5-nitro-indolin-2-one], in experiment [1] (cell prints neither Ki nor IC50), the “PIN1 inhibition (Ki and/or IC50)” value is 0.5 to 2.5 µM. In the case of `CCOC(=O)CN1C(=O)c2ccc3c4ccc5c6c(ccc(c7ccc(c2c37)C1=O)c64)C(=O)N(CC(=O)OCC)C5=O` [Diethyl 2,2'-(1,3,8,10-tetraoxo-1,3,8,10-tetrahydroisoquinolino[4 ',5',6':6,5,10]anthra[2,1,9-def]isoquinoline-2,9-diyl)diacetate], in experiment [1], the concentration for half-maximal inhibition (IC50) was 1.5 µM. On to `CCOC(=O)CN1C(=O)c2cccc3cccc(c23)C1=O` [Ethyl (1,3-dioxo-1H-benzo[de]isoquinolin-2(3H)-yl)acetate], for which, in experiment [1], the half-maximal inhibitory concentration (IC50) was 5 µM.

Regarding `O=C1C=CC(=O)c2c(O)cccc21` [Juglone, 5-Hydroxy-1,4-naphthlenedione], in experiment [2], the “proliferation of non-parasitized cells” value is listed as “no effect”. Moreover, in experiment [3], the mRNA expression result was “no effect”. With “Ac-Lys(N-biotinoyl)-Ala-Ala-Bth-D-Thr(PO3H2)-Pip-Nal-Gln-NH2”, in experiment [4] (read-out: PIN1 inhibition Ki), the Ki is 0.0012 µM. Regarding Ac-Phe-Phe-pSer-Ψ[(Z)CHdC]-Pro-Arg-NH2, in experiment [4] (read-out: PIN1 inhibition IC50), the IC50 was 1.3 µM. Besides, the Ki in experiment [4] (read-out: PIN1 inhibition Kis) was 1.74 µM. As to CRYPEVEIC, in experiment [4] (read-out: PIN1 inhibition Ki), the Ki was 0.52 µM.
